Measurements from ChEMBL document CHEMBL1130707, “Inhibition stereochemistry of hydroxamate inhibitors for thermolysin” (Bioorg Med Chem Lett, 1998).

Target: T1, Thermolysin (Bacillus thermoproteolyticus, UniProt P00800)
T1 sequence (P00800 whole entry): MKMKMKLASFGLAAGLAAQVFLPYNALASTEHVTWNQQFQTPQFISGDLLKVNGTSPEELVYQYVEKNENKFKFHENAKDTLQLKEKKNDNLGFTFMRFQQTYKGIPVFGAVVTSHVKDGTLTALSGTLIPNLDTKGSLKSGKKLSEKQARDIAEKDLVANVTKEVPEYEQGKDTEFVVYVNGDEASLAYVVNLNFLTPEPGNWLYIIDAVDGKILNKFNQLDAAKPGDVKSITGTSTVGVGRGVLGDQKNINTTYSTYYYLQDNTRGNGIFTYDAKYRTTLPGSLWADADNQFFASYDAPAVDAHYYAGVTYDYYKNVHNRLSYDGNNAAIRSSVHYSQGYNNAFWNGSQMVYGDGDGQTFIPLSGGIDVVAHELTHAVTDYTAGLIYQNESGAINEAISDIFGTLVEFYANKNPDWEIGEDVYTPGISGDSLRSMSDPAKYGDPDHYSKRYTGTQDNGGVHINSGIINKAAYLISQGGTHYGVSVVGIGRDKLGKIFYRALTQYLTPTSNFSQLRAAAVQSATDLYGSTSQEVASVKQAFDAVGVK
Assay: Inhibitory activity against thermolysin

SMILES | Ki [µM]
CNC(=O)[C@@H](Cc1ccccc1)CN(O)C(C)=O | 3950
CCC(=O)N(O)C[C@H](Cc1ccccc1)C(=O)NC | 7500
CNC(=O)[C@H](Cc1ccccc1)CN(O)C=O | 68.2

Now from value to molecule:

Ki [µM] | SMILES
44 | COC(=O)[C@@H](CC(C)C)N(O)C=O
22.5 | COC(=O)[C@@H](CC(C)C)CN(O)C=O
1.66 | CNC(=O)[C@@H](Cc1ccccc1)CN(O)C=O

Target: T1, Thermolysin
Assay: Inhibitory activity against thermolysin; No inhibitory activity was observed up to concentration of 20 mM

Ki | SMILES
No inhibition | CCC(=O)N(O)C[C@@H](Cc1ccccc1)C(=O)NC
No inhibition | CNC(=O)[C@H](Cc1ccccc1)CN(O)C(C)=O
